Laboratory results reported in patent publication US20190226949A1, “IRIDIUM COMPLEXES FOR CELLULAR IMAGING” (UNIVERSITY OF SOUTH AUSTRALIA, priority 2016, published 2019).
Where “and” joins values, the source holds several entries; their conditions need not be identical. Equal values may be shown once.

How the values were obtained:
[1] = Photophysical measurements (absorption, emission, lifetime, quantum yield) in diluted solutions; format: physicochemical; conditions: for Emission λem / τaer, excited state lifetime (relative weight in parentheses) / τdeaer, excited state lifetime (relative weight in parentheses): 298K; for Φaer, quantum yield / Φdeaer, quantum yield: versus Ru(bpy)3^2+ in water (φr = 0.028); for τdeaer, excited state lifetime (relative weight in parentheses) / Φdeaer, quantum yield: deaerated; for knr: calculated as [(1 − φ)/τ] from deaerated solutions; for kr: calculated as [φ/τ] from deaerated solutions; for Φ, quantum yield: versus Ru(bpy)3^2+ in water
Text: A summary of the photophysical data for the complexes as diluted solutions (10^−5 M) in dichloromethane, water, PBS, lysosomal fluid solution, and ethyl laurate is reported in Table 1. All the listed aqueous media also contain 0.1% DMSO to favour the solubilisation of the complexes. The various solvents have been chosen to identify potential modulations on the photophysical behaviour of the iridium complexes in diverse cellular environments such as cytoplasm, endosome/lysosomes acidic organelles, or lipid-rich compartments like membranes, endoplasmic reticulum, and lipid droplets. In general, the photophysical characteristics were measured in aerated solutions to take into account the presence of oxygen in live cells. On the other hand, dichloromethane solutions were compared as aerated and degassed to confirm oxygen sensitivity and triplet character of the excited states of the complexes.
Absorption spectra were recorded at room temperature using a Cary 4000 UV/Vis spectrometer. Uncorrected steady state emission and excitation spectra were recorded on an Edinburgh FLSP980-S2S2-stm spectrometer equipped with: i) a temperature-monitored cuvette holder; ii) 450 W Xenon arc lamp; iii) double excitation and emission monochromators; iv) a Peltier cooled Hamamatsu R928P photomultiplier tube (spectral range 200-870 nm). Emission and excitation spectra were corrected for source intensity (lamp and grating) and emission spectral response (detector and grating) by a calibration curve supplied with the instrument. According to the approach described by Demas and Crosby, luminescence quantum yields (Φem) were measured in optically dilute solutions (O.D.<0.1 at excitation wavelength) obtained from absorption spectra on a wavelength scale [nm] and compared to the reference emitter by the following equation: […]
where A is the absorbance at the excitation wavelength (λ), I is the intensity of the excitation light at the excitation wavelength (λ), n is the refractive index of the solvent, D is the integrated intensity of the luminescence and Φ is the quantum yield. The subscripts r and x refer to the reference and the sample, respectively. The quantum yield determinations were performed at identical excitation wavelength for the sample and the reference, therefore cancelling the I(λr)/I(λx) term in the equation. The quantum yields of complexes were measured against Rubipy in water (Φr=0.028). Emission lifetimes (z) were determined with the time correlated single photon counting technique (TCSPC) with the same Edinburgh FLSP980-S2S2-stm spectrometer using either a pulsed picosecond LED (EPLED/EPL 377 nm, FHWM<800 ps) or a microsecond flashlamp. The goodness of fit was assessed by minimising the reduced χ^2 function and by visual inspection of the weighted residuals. The solvents used for the preparation of the solutions for the photophysical investigations were of LR grade and the water was deionised. Degassing of the dichlorometane solutions was performed using the freeze-pump-thaw method. Experimental uncertainties are estimated to be ±8% for lifetime determinations, ±20% for quantum yields, ±2 nm and ±5 nm for absorption and emission peaks, respectively.

[2] = Lipophilicity by shake-flask method (7.4-buffered PBS / n-octanol); format: physicochemical; conditions: 7.4-buffered PBS solution and n-octanol
Experimental: The lipophilicity of the iridium complexes was measured by the shake-flask method using 7.4-buffered PBS and n-octanol as solvents (Table 2). The values range between 1.49 and 2.68 are typical for cyclometalated iridium complexes that have not been bioconjugated. […] In general, neutral complexes have log D7.4 values above 2.00 and there is an increased in lipophilicity of extending the tetrazolato ligand with the addition of a phenyl spacer in [Ir(ppy)2(TzPyPhCN)], or by extending the conjugation on passing from pyridine to quinoline or isoquinoline for [Ir(ppy)2(TzQn)] and [Ir(ppy)2(TziQn)]. Methylation in all cases reduces lipophilicity to log D7.4 values […], with the same trend within the family of methylated complexes as previously observed for the neutral ones.

Emission λem ([1]; DCM, 10^−5 M) | τaer, excited state lifetime (relative weight in parentheses) ([1]; DCM, aerated) | Φaer, quantum yield ([1]; DCM, aerated) | τdeaer, excited state lifetime (relative weight in parentheses) ([1]; DCM) | Φdeaer, quantum yield ([1]; DCM) | knr ([1]; DCM) | kr ([1]; DCM) | Emission λem ([1]; H2O with 0.1% DMSO, aerated) | Φ, quantum yield ([1]; H2O with 0.1% DMSO, aerated) | logD7.4, distribution coefficient [2] | Structure (SMILES) | Absorption λabs [nm] (10^4ε [M^−1cm^−1]) ([1]; DCM, 10^−5 M) | Absorption λabs [nm] (10^4ε [M^−1cm^−1]) ([1]; H2O with 0.1% DMSO, 10^−5 M)
560 nm | 114 ns | 0.023 | 880 ns | 0.149 | 0.967 10^6s^−1 | 1.693 10^5s^−1 | 580 nm | 0.055 | 2.68 ± 0.08 | N#Cc1ccc(-c2ccc3[n+](c2)[Ir]24([c]5ccccc5-c5cccc[n+]52)([c]2ccccc2-c2cccc[n+]24)[n]2nnnc2-3)cc1 [[Ir(ppy)2(TzPyPhCN)]] | 268 (3.95) nm (10^4ε [M^−1cm^−1]) and 290 (3.64) nm (10^4ε [M^−1cm^−1]) and 345 (0.58) nm (10^4ε [M^−1cm^−1]) and 423 (0.27) nm (10^4ε [M^−1cm^−1]) | 286 (1.87) nm (10^4ε [M^−1cm^−1]) and 350 (0.86) nm (10^4ε [M^−1cm^−1]) and 421 (0.34) nm (10^4ε [M^−1cm^−1])
580 nm | 153 ns | 0.021 | 831 ns | 0.065 | 1.125 10^6s^−1 | 0.782 10^5s^−1 | 600 nm | 0.039 | 2.23 ± 0.04 | c1cc[c]2c(c1)-c1cccc[n+]1[Ir]213([c]2ccccc2-c2cccc[n+]21)[n]1nnnc1-c1ccc2ccccc2[n+]13 [[Ir(ppy)2(TzQn)]] | 263 (8.44) nm (10^4ε [M^−1cm^−1]) and 345 (1.97) nm (10^4ε [M^−1cm^−1]) and 428 (0.42) nm (10^4ε [M^−1cm^−1]) | 266 (4.41) nm (10^4ε [M^−1cm^−1]) and 350 (2.35) nm (10^4ε [M^−1cm^−1]) and 425 (0.97) nm (10^4ε [M^−1cm^−1])
535, nm and 575 nm and 620 nm | 497 ns | 0.036 | 6713 ns | 0.144 | 0.128 10^6s^−1 | 0.214 10^5s^−1 | 590 nm | 0.018 | 2.57 ± 0.05 | c1cc[c]2c(c1)-c1cccc[n+]1[Ir]213([c]2ccccc2-c2cccc[n+]21)[n]1nnnc1-c1c2ccccc2cc[n+]13 [[Ir(ppy)2(TziQn)]] | 260 (9.77) nm (10^4ε [M^−1cm^−1]) and 340 (3.13) nm (10^4ε [M^−1cm^−1]) and 424 (0.75) nm (10^4ε [M^−1cm^−1]) | 268 (3.42) nm (10^4ε [M^−1cm^−1]) and 350 (2.00) nm (10^4ε [M^−1cm^−1]) and 435 (0.80) nm (10^4ε [M^−1cm^−1])
